Results from publication PMC9250534, “Synthesis and direct assay of large macrocycle diversities by combinatorial late-stage modification at picomole scale” (Nature Communications, 2022).
Several values for one entry are separate records, joined by “and”; a condition that tells them apart may be missing. Identical values can stand only once. Like-named read-outs stand apart in the source and are kept apart here. One block for each molecule: values may come before it.

What was measured:
MDM2 [1] = target: T1, MDM2 (Homo sapiens, UniProt Q00987); assay: MDM2 binding (FP53 displacement) by HPLC fractions of resynthesized hit reactions
Experimental: For hits from the MDM2 screen, reactions were performed in the same way but at a 50 nmol scale, and purified with the same method but a 10–80% gradient of solvent B and over 22 min. Fractions were lyophilized and dissolved in 40 μL of DMSO, 160 μL of water was added, and 5 μL of each fraction was transferred to a 384-well plate (Nunc, 264705), and 15 μL of premixed MDM2/FP53 peptide were added (final concentrations: 1.2 μM MDM2, 50 nM FP53, 5% DMSO).

MDM2 [2] = target: T1, MDM2; assay: IC50 of purified MDM2-binding macrocycles, fluorescence polarization competition with FP53; details: for IC50: HPLC-purified macrocycle, FP displacement of fluorescent reporter peptide; for displacement of fluorescent peptide probe from MDM2: HPLC-purified macrocycles, FP competition; for anisotropy: replicates 1-3
Experimental: Volumes of 5 μL of purified macrocycles (20 mM in DMSO) were serial diluted two-fold in 100% DMSO in a low dead-volume ECHO source plate. Using acoustic droplet transfer, 150 nL of each dilution was transferred to a 384 well low volume polystyrene plate (Nunc, 264705). […] Fluorescence anisotropy was measured as described above. The percentage of bound inhibitor was calculated using the following equation4 %boundinhibitor=N−X/N−P×100 where N is the average anisotropy of the DMSO controls, X is the anisotropy value obtained for each well, and P is the average anisotropy of the unbound probe. The IC50s were determined by plotting the percent of bound inhibitor against the logarithm of the corresponding macrocycle concentration, and the curves were fitted in GraphPad Prism 6 as described above.

MDM2 [3] = target: T1, MDM2; assay: Kd of MDM2 binders by surface plasmon resonance (SPR); type: binding; details: unlabeled macrocycles; triplicate
Experimental: Experiments were performed using a GE Healthcare Biacore 8 K instrument. MDM2 (10 μg/mL) was dissolved in 10 mM MES buffer (pH 6.0) and immobilized on three channels of a CM5 series S chip (Cytiva, 29104988) using EDC/NHS amine coupling conditions in running buffer (10 mM PBS pH 7.4, 150 mM NaCl, 3 mM KCl, and 0.005% v/v Tween 20). Typical immobilization level was 6000 to 7000 resonance units (RUs). The reference cell was treated the same way without MDM2. For the measurement of binding kinetics and dissociation constants, five serial dilutions (3-fold) of macrocycles plus a DMSO blank were prepared in running buffer (10 mM PBS pH 7.4, 150 mM NaCl, 3 mM KCl, and 0.005% v/v Tween 20, and 0.5% v/v DMSO) and analyzed in single cycle kinetics mode with contact and dissociation times of 120 s and 60 s, respectively. The data was collected and analyzed using the Biacore 8 K Control Software.
Supplementary Figure 14. Binding of macrocycles to MDM2 measured by SPR. a, Single-cycle SPR sensorgrams for fluorescein-labeled macrocycles, positive control nutlin-3a (not fluorescein labeled), and negative controls (thrombin inhibitors; not fluorescein labeled). RU, response unit. b, Single-cycle SPR sensorgrams for macrocycles M6, M7, M8 and M10 (not fluorescein-labeled), performed in triplicate.
(1 picture or pasted object on this page, not shown here)

MDM2 [4] = target: T1, MDM2; assay: MDM2 binding screen of Libraries 3 and 4: displacement of fluorescent probe F-M8 at 750 nM macrocycle; details: 750 nM macrocycle; crude reaction; probe F-M8
Procedure, shortened: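 Cyclic peptide scaffolds were acylated in DMSO with carboxylic acids (20 equiv.), HBTU and DABCO for 6 h at room temperature. Reactions were quenched overnight in 100 mM Tris-Cl pH 7.4, 0.01% Tween20. The fluorescein conjugate was also competed with nutlin-3a.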

[5] = prodrug; cited from earlier work
MDM2 [6] = details: MDM2 inhibitor in clinical studies; literature value, no reference given; read-out: HTRF IC50; cited from earlier work
[7] = HPLC Fraction 1 of acylation reaction
[8] = HPLC Fraction 2 of acylation reaction
[9] = HPLC Fraction 3 of acylation reaction
[10] = HPLC Fraction 4 of acylation reaction
[11] = HPLC Fraction 5 of acylation reaction
[12] = HPLC Fraction 6 of acylation reaction
[13] = HPLC Fraction 7 of acylation reaction
[14] = HPLC Fraction 8 of acylation reaction
[15] = HPLC Fraction 9 of acylation reaction
[16] = HPLC Fraction 10 of acylation reaction
[17] = HPLC Fraction 11 of acylation reaction
[18] = HPLC Fraction 12 of acylation reaction
[19] = HPLC Fraction 13 of acylation reaction
[20] = HPLC Fraction 14 of acylation reaction
[21] = HPLC Fraction 15 of acylation reaction
[22] = HPLC Fraction 16 of acylation reaction
[23] = HPLC Fraction 17 of acylation reaction
[24] = HPLC Fraction 18 of acylation reaction
[25] = HPLC Fraction 19 of acylation reaction
[26] = HPLC Fraction 20 of acylation reaction
[27] = average of 3 replicates, read-out: IC50 Average
[28] = replicate 1, read-out: IC50 Replicate 1
[29] = replicate 2, read-out: IC50 Replicate 2
[30] = replicate 3, read-out: IC50 Replicate 3

T1 sequence (Q00987 whole entry): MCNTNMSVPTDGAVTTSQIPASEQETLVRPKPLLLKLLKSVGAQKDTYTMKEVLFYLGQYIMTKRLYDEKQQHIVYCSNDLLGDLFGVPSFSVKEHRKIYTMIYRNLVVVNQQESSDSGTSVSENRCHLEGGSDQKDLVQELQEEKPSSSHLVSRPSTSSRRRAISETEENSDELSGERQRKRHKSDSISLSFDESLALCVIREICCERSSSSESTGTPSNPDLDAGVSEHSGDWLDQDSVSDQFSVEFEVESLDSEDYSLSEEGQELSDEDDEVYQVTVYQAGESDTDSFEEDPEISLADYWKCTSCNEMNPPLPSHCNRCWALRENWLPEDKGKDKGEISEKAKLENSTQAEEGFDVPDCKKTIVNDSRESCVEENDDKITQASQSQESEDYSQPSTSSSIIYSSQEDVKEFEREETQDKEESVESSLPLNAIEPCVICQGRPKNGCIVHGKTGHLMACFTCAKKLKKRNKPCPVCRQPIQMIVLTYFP

Fraction bound (fraction fluorescent probe displaced) (MDM2 [1]; [7]): -0.09 | Fraction bound (fraction fluorescent probe displaced) (MDM2 [1]; [8]): 0.04 | Fraction bound (fraction fluorescent probe displaced) (MDM2 [1]; [9]): 0.0145 | Fraction bound (fraction fluorescent probe displaced) (MDM2 [1]; [10]): 0.04 | Fraction bound (fraction fluorescent probe displaced) (MDM2 [1]; [11]): -0.0633 | Fraction bound (fraction fluorescent probe displaced) (MDM2 [1]; [12]): -0.0373 | Fraction bound (fraction fluorescent probe displaced) (MDM2 [1]; [13]): -0.0114 | Fraction bound (fraction fluorescent probe displaced) (MDM2 [1]; [14]): -0.0114 | Fraction bound (fraction fluorescent probe displaced) (MDM2 [1]; [15]): 0.0664 | Fraction bound (fraction fluorescent probe displaced) (MDM2 [1]; [16]): -0.0373 | Fraction bound (fraction fluorescent probe displaced) (MDM2 [1]; [17]): -0.09 | Fraction bound (fraction fluorescent probe displaced) (MDM2 [1]; [18]): -0.0633 | Fraction bound (fraction fluorescent probe displaced) (MDM2 [1]; [19]): -0.0373 | Fraction bound (fraction fluorescent probe displaced) (MDM2 [1]; [20]): 0.27 | Fraction bound (fraction fluorescent probe displaced) (MDM2 [1]; [21]): -0.22 | Fraction bound (fraction fluorescent probe displaced) (MDM2 [1]; [22]): -0.0114 | Fraction bound (fraction fluorescent probe displaced) (MDM2 [1]; [23]): 0.04 | Fraction bound (fraction fluorescent probe displaced) (MDM2 [1]; [24]): -0.0373 | Fraction bound (fraction fluorescent probe displaced) (MDM2 [1]; [25]): -0.24 | Fraction bound (fraction fluorescent probe displaced) (MDM2 [1]; [26]): -0.0633 | IC50 (MDM2 [2]; [27]): 2400 nM | IC50 (MDM2 [2]; [28]): 2600 nM | IC50 (MDM2 [2]; [29]): 1900 nM | IC50 (MDM2 [2]; [30]): 2600 nM | displacement of fluorescent peptide probe from MDM2 (MDM2 [2]): efficiently displaced | anisotropy (MDM2 [2]; Log[Macrocycle] M -4.0): 25 and 23 and 22 | anisotropy (MDM2 [2]; Log[Macrocycle] M -4.3): 31 and 28 and 30 | anisotropy (MDM2 [2]; Log[Macrocycle] M -4.6): 33 (2×) and 32 | anisotropy (MDM2 [2]; Log[Macrocycle] M -4.9): 38 and 32 and 40 | anisotropy (MDM2 [2]; Log[Macrocycle] M -5.2): 47 and 39 and 44 | anisotropy (MDM2 [2]; Log[Macrocycle] M -5.5): 51 and 45 and 47 | anisotropy (MDM2 [2]; Log[Macrocycle] M -5.8): 62 and 52 and 55 | anisotropy (MDM2 [2]; Log[Macrocycle] M -6.1): 69 and 59 and 62 | anisotropy (MDM2 [2]; Log[Macrocycle] M -6.4): 80 and 67 and 64 | anisotropy (MDM2 [2]; Log[Macrocycle] M -6.7): 83 and 68 and 74 | anisotropy (MDM2 [2]; Log[Macrocycle] M -7.0): 78 and 72 and 75 | anisotropy (MDM2 [2]; Log[Macrocycle] M -7.3): 86 and 75 and 80 | anisotropy (MDM2 [2]; Log[Macrocycle] M -7.6): 89 and 77 and 85 | anisotropy (MDM2 [2]; Log[Macrocycle] M -7.9): 88 and 77 and 82 | anisotropy (MDM2 [2]; Log[Macrocycle] M -8.2): 89 and 77 and 85 | anisotropy (MDM2 [2]; Log[Macrocycle] M -8.5): 91 and 80 and 78 | Kd (MDM2 [3]): 600 ± 300 nM
SMILES: O=C(NC[C@@H]1NC(=O)[C@H]2CCCN(C2)C(=O)CCSSCCNC(=O)[C@H](Cc2c[nH]c3ccccc23)NC1=O)c1ccc(Cl)s1 [M6]

Fraction bound (fraction fluorescent probe displaced) (MDM2 [1]; [7]): 0.08 | Fraction bound (fraction fluorescent probe displaced) (MDM2 [1]; [8]): 0.25 | Fraction bound (fraction fluorescent probe displaced) (MDM2 [1]; [9]): 0.02 | Fraction bound (fraction fluorescent probe displaced) (MDM2 [1]; [10]): -0.000869 | Fraction bound (fraction fluorescent probe displaced) (MDM2 [1]; [11]): -0.0422 | Fraction bound (fraction fluorescent probe displaced) (MDM2 [1]; [12]): -0.000869 | Fraction bound (fraction fluorescent probe displaced) (MDM2 [1]; [13]): 0.02 | Fraction bound (fraction fluorescent probe displaced) (MDM2 [1]; [14]): 0.02 | Fraction bound (fraction fluorescent probe displaced) (MDM2 [1]; [15]): 0.04 | Fraction bound (fraction fluorescent probe displaced) (MDM2 [1]; [16]): -0.0422 | Fraction bound (fraction fluorescent probe displaced) (MDM2 [1]; [17]): -0.0422 | Fraction bound (fraction fluorescent probe displaced) (MDM2 [1]; [18]): -0.0216 | Fraction bound (fraction fluorescent probe displaced) (MDM2 [1]; [19]): 0.37 | Fraction bound (fraction fluorescent probe displaced) (MDM2 [1]; [20]): 0.04 | Fraction bound (fraction fluorescent probe displaced) (MDM2 [1]; [21]): -0.13 | Fraction bound (fraction fluorescent probe displaced) (MDM2 [1]; [22]): -0.0216 | Fraction bound (fraction fluorescent probe displaced) (MDM2 [1]; [23]): -0.0216 | Fraction bound (fraction fluorescent probe displaced) (MDM2 [1]; [24]): -0.21 | Fraction bound (fraction fluorescent probe displaced) (MDM2 [1]; [25]): -0.17 | Fraction bound (fraction fluorescent probe displaced) (MDM2 [1]; [26]): -0.23 | displacement of fluorescent probe from MDM2 (MDM2 [4]): 21% | IC50 (MDM2 [2]; [27]): 900 nM | IC50 (MDM2 [2]; [28]): 1000 nM | IC50 (MDM2 [2]; [29]): 840 nM | IC50 (MDM2 [2]; [30]): 860 nM | displacement of fluorescent peptide probe from MDM2 (MDM2 [2]): efficiently displaced | anisotropy (MDM2 [2]; Log[Macrocycle] M -4.0): 50 and 44 and 45 | anisotropy (MDM2 [2]; Log[Macrocycle] M -4.3): 50 and 43 and 47 | anisotropy (MDM2 [2]; Log[Macrocycle] M -4.6): 52 and 45 and 51 | anisotropy (MDM2 [2]; Log[Macrocycle] M -4.9): 53 and 50 and 49 | anisotropy (MDM2 [2]; Log[Macrocycle] M -5.2): 59 and 42 and 53 | anisotropy (MDM2 [2]; Log[Macrocycle] M -5.5): 61 and 53 and 54 | anisotropy (MDM2 [2]; Log[Macrocycle] M -5.8): 67 and 55 and 59 | anisotropy (MDM2 [2]; Log[Macrocycle] M -6.1): 73 and 65 and 68 | anisotropy (MDM2 [2]; Log[Macrocycle] M -6.4): 80 and 68 and 73 | anisotropy (MDM2 [2]; Log[Macrocycle] M -6.7): 85 and 73 and 80 | anisotropy (MDM2 [2]; Log[Macrocycle] M -7.0): 87 (2×) and 82 | anisotropy (MDM2 [2]; Log[Macrocycle] M -7.3): 92 and 79 and 84 | anisotropy (MDM2 [2]; Log[Macrocycle] M -7.6): 94 and 80 and 85 | anisotropy (MDM2 [2]; Log[Macrocycle] M -7.9): 90 and 80 and 83 | anisotropy (MDM2 [2]; Log[Macrocycle] M -8.2): 94 and 77 and 85 | anisotropy (MDM2 [2]; Log[Macrocycle] M -8.5): 93 and 83 (2×)
SMILES: O=C(/C=C/c1ccccc1)NC[C@@H]1NC(=O)[C@H]2CCCN(C2)C(=O)CCSSCCNC(=O)[C@H](Cc2c[nH]c3ccccc23)NC1=O [M8]

SMILES: CCCCCCOC(=O)NC(=N)c1ccc(NCc2nc3cc(C(=O)N(CCC(=O)OCC)c4ccccn4)ccc3n2C)cc1 [dabigatran etexilate]
oral availability [5]: < 6.5%
